Results as given in patent EP3383875B1, “3-PYRIMIDINYL PYRROLO [2,3-B] PYRIDINE AS ANTICANCER AGENTS AND THE PROCESS FOR THE PREPARATION THEREOF” (Council Of Scientific & Industrial Research, priority 2015, dated 2017).
Read-outs that look alike come from different tables or passages of the source.

Legend:
CDK-2/cyclin A = CDK-2/cyclin A (Homo sapiens, UniProt P24941); assay: CDK inhibition assay, CDK-2/cyclin A against Histone HI, 33P-ATP; assay type: biochemical; settings: at 500 nM
Experimental: Compounds were evaluated for their ability to inhibit CDK2 and CDK9 as given below.
CDK-2/cyclin A (5-20 mU diluted in 50 mM Hepes pH 7.5, 1 mM DTT, 0.02% Brij35, 100 mM NaCl) was assayed against Histone HI in a final volume of 25.5 µl containing 50 mM Hepes pH7.5, 1 mM DTT, 0.02% Brij35, 100 mM NaCl, Histone HI (1 mg/ml), 10 mM magnesium acetate and 0.02 mM [33P-g-ATP](500-1000 cpm/pmole) and incubated for 30 min at room temperature. Assays were stopped by addition of 5 µl of 0.5 M (3%) orthophosphoric acid and then harvested onto P81 Unifilter plates with a wash buffer of 50 mM orthophosphoric acid.

CDK-9/Cyclin T1 = CDK-9/Cyclin T1 (Homo sapiens, UniProt P50750); assay: CDK inhibition assay, CDK-9/Cyclin T1 against substrate peptide, 33P-ATP; assay type: biochemical; settings: at 500 nM
Sequence of CDK-9/Cyclin T1 (P50750 whole entry): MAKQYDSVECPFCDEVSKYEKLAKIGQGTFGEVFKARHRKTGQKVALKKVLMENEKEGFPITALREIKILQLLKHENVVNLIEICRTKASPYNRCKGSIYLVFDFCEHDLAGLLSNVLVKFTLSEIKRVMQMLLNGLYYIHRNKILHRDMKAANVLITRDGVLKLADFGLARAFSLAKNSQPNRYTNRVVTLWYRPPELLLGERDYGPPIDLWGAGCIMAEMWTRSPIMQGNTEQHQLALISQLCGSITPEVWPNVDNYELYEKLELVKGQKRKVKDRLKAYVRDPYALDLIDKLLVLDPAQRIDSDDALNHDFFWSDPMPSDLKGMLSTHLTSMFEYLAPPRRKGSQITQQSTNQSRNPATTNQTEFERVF
Sequence of CDK-9/Cyclin T1 (O60563 whole entry partner): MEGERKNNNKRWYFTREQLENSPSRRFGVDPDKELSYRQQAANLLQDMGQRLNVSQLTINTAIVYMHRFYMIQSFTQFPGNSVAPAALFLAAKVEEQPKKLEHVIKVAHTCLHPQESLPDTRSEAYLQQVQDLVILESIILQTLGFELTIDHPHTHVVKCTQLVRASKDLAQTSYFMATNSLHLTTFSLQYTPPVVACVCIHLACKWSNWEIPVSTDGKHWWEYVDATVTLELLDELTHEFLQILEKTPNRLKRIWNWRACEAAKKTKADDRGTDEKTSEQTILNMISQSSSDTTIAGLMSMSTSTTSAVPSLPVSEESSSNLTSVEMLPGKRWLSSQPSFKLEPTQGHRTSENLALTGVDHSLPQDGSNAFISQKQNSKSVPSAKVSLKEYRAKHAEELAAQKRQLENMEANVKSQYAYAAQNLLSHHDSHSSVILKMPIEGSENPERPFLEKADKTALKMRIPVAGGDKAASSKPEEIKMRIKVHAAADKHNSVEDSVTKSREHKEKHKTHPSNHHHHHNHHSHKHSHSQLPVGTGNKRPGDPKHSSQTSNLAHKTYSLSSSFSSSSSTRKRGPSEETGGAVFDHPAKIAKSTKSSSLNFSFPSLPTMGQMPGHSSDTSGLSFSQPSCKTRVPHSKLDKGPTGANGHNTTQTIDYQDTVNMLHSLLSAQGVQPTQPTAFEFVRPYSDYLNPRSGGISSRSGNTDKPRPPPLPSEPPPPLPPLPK
Experimental: (50-1000 cpm/pmole) and incubated for 30 min at room temperature. Assays were stopped by addition of 5 µl of 0.5 M (3%) orthophosphoric acid and then harvested onto P81 Unifilter plates with a wash buffer of 50 mM orthophosphoric acid.

[1] = Table-6, read-out: In vitro CDK2 % of inhibition
[2] = read-out: inhibition against CDK2
[3] = Table-6, read-out: In vitro CDK9 % of inhibition
[4] = read-out: inhibition against CDK9
[5] = Table-7, read-out: In vitro CDK2 % of inhibition
[6] = Table-7, read-out: In vitro CDK9 % of inhibition

inhibition at 0.5 µM (CDK-2/cyclin A; [1]) | inhibition at 0.5 µM (CDK-2/cyclin A; [2]) | inhibition at 0.5 µM (CDK-9/Cyclin T1; [3]) | inhibition at 0.5 µM (CDK-9/Cyclin T1; [4]) | inhibition at 0.5 µM (CDK-2/cyclin A; [5]) | inhibition at 0.5 µM (CDK-9/Cyclin T1; [6]) | Structure (SMILES)
> 50% | > 50% | > 50% | > 50% | – | – | CSc1ccc(-c2cnc3[nH]cc(-c4ccnc(NC5CCCC5)n4)c3c2)cc1 [1A28, N-cyclopentyl-4-(5-(4-(methylthio)phenyl)-1H-pyrrolo[2,3-b]pyridin-3-yl)pyrimidin-2-amine]
– | > 50% | – | > 50% | > 50% | > 50% | CC(=O)c1ccc(-c2cnc3[nH]cc(-c4ccnc(NCCc5ccccc5)n4)c3c2)cc1 [1B13, 1-(4-(3-(2-(phenethylamino)pyrimidin-4-yl)-1H-pyrrolo[2,3-b]pyridin-5-yl)phenyl)ethan-1-one]
> 50% | > 50% | > 50% | > 50% | – | – | Cc1cccc(-c2cnc3[nH]cc(-c4ccnc(NC5CCCC5)n4)c3c2)c1 [1A27, N-cyclopentyl-4-(5-(m-tolyl)-1H-pyrrolo[2,3-b]pyridin-3-yl)pyrimidin-2-amine]
> 70% | > 70% | > 70% | > 70% | – | – | c1ccc2[nH]c(-c3cnc4[nH]cc(-c5ccnc(NC6CC6)n5)c4c3)cc2c1 [1A19, 4-(5-(1H-indol-2-yl)-1H-pyrrolo[2,3-b]pyridin-3-yl)-N-cyclopropylpyrimidin-2-amine]
> 70% | > 70% | > 70% | > 70% | – | – | CSc1ccccc1-c1cnc2[nH]cc(-c3ccnc(NC4CCCC4)n3)c2c1 [1A29, N-cyclopentyl-4-(5-(2-(methylthio)phenyl)-1H-pyrrolo[2,3-b]pyridin-3-yl)pyrimidin-2-amine]
– | > 50% | – | > 50% | > 50% | > 50% | CSc1ccccc1-c1cnc2[nH]cc(-c3ccnc(NCCc4ccccc4)n3)c2c1 [1B9, 4-(5-(2-(methylthio)phenyl)-1H-pyrrolo[2,3-b]pyridin-3-yl)-N-phenethylpyrimidin-2-amine]
> 70% | > 70% | > 70% | > 70% | – | – | FC(F)(F)c1cccc(-c2cnc3[nH]cc(-c4ccnc(NC5CC5)n4)c3c2)c1 [1A4, N-cyclopropyl-4-(5-(3-(trifluoromethyl)phenyl)-1H-pyrrolo[2,3-b]pyridin-3-yl)pyrimidin-2-amine]
– | > 70% | – | > 70% | > 70% | > 70% | COc1ccc2[nH]c(-c3cnc4[nH]cc(-c5ccnc(NC6CCCCCC6)n5)c4c3)cc2c1 [1A57, N-cycloheptyl-4-(5-(5-methoxy-1H-indol-2-yl)-1H-pyrrolo[2,3-b]pyridin-3-yl)pyrimidin-2-amine]
< 50% | – | < 50% | – | – | – | FC(F)(F)c1ccc(-c2cnc3[nH]cc(-c4ccnc(NC5CCCC5)n4)c3c2)cc1 [1A21, N-cyclopentyl-4-(5-(4-(trifluoromethyl)phenyl)-1H-pyrrolo[2,3-b]pyridin-3-yl)pyrimidin-2-amine]
> 50% | > 50% | > 50% | > 50% | – | – | c1ccc2[nH]c(-c3cnc4[nH]cc(-c5ccnc(NC6CCCC6)n5)c4c3)cc2c1 [1A39, 4-(5-(1H-indol-2-yl)-1H-pyrrolo[2,3-b]pyridin-3-yl)-N-cyclopentylpyrimidin-2-amine]
– | > 50% | – | > 50% | > 50% | > 50% | COc1ccc2[nH]c(-c3cnc4[nH]cc(-c5ccnc(NCCc6ccccc6)n5)c4c3)cc2c1 [1B17, 4-(5-(5-methoxy-1H-indol-2-yl)-1H-pyrrolo[2,3-b]pyridin-3-yl)-N-phenethylpyrimidin-2-amine]
> 50% | > 50% | > 50% | > 50% | – | – | CCc1ccccc1-c1cnc2[nH]cc(-c3ccnc(NC4CCCC4)n3)c2c1 [1A30, N-cyclopentyl-4-(5-(2-ethylphenyl)-1H-pyrrolo[2,3-b]pyridin-3-yl)pyrimidin-2-amine]
> 70% | – | > 70% | – | – | – | Fc1cccc(-c2cnc3[nH]cc(-c4ccnc(NC5CCCC5)n4)c3c2)c1 [1A25, N-cyclopentyl-4-(5-(3-fluorophenyl)-1H-pyrrolo[2,3-b]pyridin-3-yl)pyrimidin-2-amine]
> 70% | > 70% | > 70% | > 70% | – | – | CCc1ccccc1-c1cnc2[nH]cc(-c3ccnc(NC4CC4)n3)c2c1 [1A10, N-cyclopropyl-4-(5-(2-ethylphenyl)-1H-pyrrolo[2,3-b]pyridin-3-yl)pyrimidin-2-amine]
– | > 70% | – | > 70% | > 70% | > 70% | c1ccc2c(-c3cnc4[nH]cc(-c5ccnc(NC6CCCCCC6)n5)c4c3)cccc2c1 [1A54, N-cycloheptyl-4-(5-(naphthalen-1-yl)-1H-pyrrolo[2,3-b]pyridin-3-yl)pyrimidin-2-amine]
> 50% | > 50% | > 50% | > 50% | – | – | c1cncc(-c2cnc3[nH]cc(-c4ccnc(NC5CCCC5)n4)c3c2)c1 [1A35, N-cyclopentyl-4-(5-(pyridin-3-yl)-1H-pyrrolo[2,3-b]pyridin-3-yl)pyrimidin-2-amine]
– | > 50% | – | > 50% | > 50% | > 50% | CCc1ccccc1-c1cnc2[nH]cc(-c3ccnc(NCCc4ccccc4)n3)c2c1 [1B10, 4-(5-(2-ethylphenyl)-1H-pyrrolo[2,3-b]pyridin-3-yl)-N-phenethylpyrimidin-2-amine]
> 50% | > 50% | > 50% | > 50% | – | – | Cc1ccc(-c2cnc3[nH]cc(-c4ccnc(NC5CCCCCC5)n4)c3c2)cc1 [1A46, N-cycloheptyl-4-(5-(p-tolyl)-1H-pyrrolo[2,3-b]pyridin-3-yl)pyrimidin-2-amine]
> 50% | > 50% | > 50% | > 50% | – | – | c1ccc2sc(-c3cnc4[nH]cc(-c5ccnc(NC6CCCC6)n5)c4c3)cc2c1 [1A38, 4-(5-(benzo[b]thiophen-2-yl)-1H-pyrrolo[2,3-b]pyridin-3-yl)-N-cyclopentylpyrimidin-2-amine]
> 70% | > 70% | > 70% | > 70% | – | – | Cc1cccc(-c2cnc3[nH]cc(-c4ccnc(NC5CC5)n4)c3c2)c1 [1A7, N-cyclopropyl-4-(5-(m-tolyl)-1H-pyrrolo[2,3-b]pyridin-3-yl)pyrimidin-2-amine]
> 50% | > 50% | > 50% | > 50% | – | – | COc1ccc2[nH]c(-c3cnc4[nH]cc(-c5ccnc(NC6CC6)n5)c4c3)cc2c1 [1A17, N-cyclopropyl-4-(5-(5-methoxy-1H-indol-2-yl)-1H-pyrrolo[2,3-b]pyridin-3-yl)pyrimidin-2-amine]
– | > 70% | – | > 70% | > 70% | > 70% | O=Cc1ccc(-c2cnc3[nH]cc(-c4ccnc(NC5CCCCCC5)n4)c3c2)cc1 [1A53, 4-(3-(2-(cycloheptylamino)pyrimidin-4-yl)-1H-pyrrolo[2,3-b]pyridin-5-yl)benzaldehyde]
> 50% | > 50% | > 50% | > 50% | – | – | c1cc(-c2c[nH]c3ncc(-c4ccoc4)cc23)nc(NC2CCCC2)n1 [1A36, N-cyclopentyl-4-(5-(furan-3-yl)-1H-pyrrolo[2,3-b]pyridin-3-yl)pyrimidin-2-amine]
– | > 70% | – | > 70% | > 70% | > 70% | CCc1ccccc1-c1cnc2[nH]cc(-c3ccnc(NC4CCCCCC4)n3)c2c1 [1A50, N-cycloheptyl-4-(5-(2-ethylphenyl)-1H-pyrrolo[2,3-b]pyridin-3-yl)pyrimidin-2-amine]
– | > 50% | – | > 50% | > 50% | > 50% | c1ccc(CCNc2nccc(-c3c[nH]c4ncc(-c5cc6ccccc6s5)cc34)n2)cc1 [1B18, 4-(5-(benzo[b]thiophen-2-yl)-1H-pyrrolo[2,3-b]pyridin-3-yl)-N-phenethylpyrimidin-2-amine]
> 50% | > 50% | > 50% | > 50% | – | – | Cc1ccc(-c2cnc3[nH]cc(-c4ccnc(NC5CCCC5)n4)c3c2)cc1 [1A26, N-cyclopentyl-4-(5-(p-tolyl)-1H-pyrrolo[2,3-b]pyridin-3-yl)pyrimidin-2-amine]
> 50% | > 50% | > 50% | > 50% | – | – | FC(F)(F)Oc1ccc(-c2cnc3[nH]cc(-c4ccnc(NC5CCCCCC5)n4)c3c2)cc1 [1A43, N-cycloheptyl-4-(5-(4-(trifluoromethoxy)phenyl)-1H-pyrrolo[2,3-b]pyridin-3-yl)pyrimidin-2-amine]
